pEC50, pIC50: −log10 of the molar value.
Experiments:
[1] = target: T1, PIP4K2A (Homo sapiens, UniProt P48426); experiment: Kinase Assay-PIP4K2 A (ADP-Glo); type: biochemical
T1 construct: made in house; host or cells: E. coli
T1 sequence (P48426 1-406): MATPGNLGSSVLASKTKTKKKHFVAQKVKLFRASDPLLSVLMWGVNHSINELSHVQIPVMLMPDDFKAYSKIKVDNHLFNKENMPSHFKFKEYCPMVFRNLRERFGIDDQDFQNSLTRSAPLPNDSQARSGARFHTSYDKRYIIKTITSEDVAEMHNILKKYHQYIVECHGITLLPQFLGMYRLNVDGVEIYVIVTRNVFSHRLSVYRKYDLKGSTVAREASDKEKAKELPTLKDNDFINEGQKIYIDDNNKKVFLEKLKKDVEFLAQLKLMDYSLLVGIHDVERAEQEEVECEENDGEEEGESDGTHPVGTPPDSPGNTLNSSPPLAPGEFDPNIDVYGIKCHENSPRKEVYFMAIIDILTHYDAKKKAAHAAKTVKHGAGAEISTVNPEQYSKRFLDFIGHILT
Description: Dilution series of the compounds were prepared in DMSO at 100 times the final assay concentration (n1=n0/3 in 10 points). The compounds were further diluted to three times the assay concentration in assay buffer (20 mM MOPS pH 7.2, 25 mM magnesium chloride, 0.005% Tween 20). 6 μL of the diluted compounds were added to a 384 well assay plate followed by 9 μL of a mix consisting of 4 nM PIP4K2A (full length protein, SignalChem) and 100 μM PI(5)P diC8 (Tebu-Bio). Enzyme and compounds were pre-incubated at room temperature for 15 minutes.
Then 3 μL of a solution containing 60 μM ATP (Promega) in assay buffer was added to the wells containing compound and enzyme and mixing was performed by pipetting several times. The reaction was incubated at room temperature for 1 h. Then 18 μL of ADP-Glo™ Reagent (Promega) was added to stop the kinase reaction and deplete the unconsumed ATP, mixing was performed by pipetting several times. The plate was incubated at room temperature for 40 minutes before addition of 36 μL of Kinase Detection Reagent (Promega) to convert ADP to ATP and introduce luciferase and luciferin to detect ATP. The reaction was incubated at room temperature for 40 minutes before the luminescence was measured in a in a Victor 3V 1420 multilabel counter (Perkin Elmer).
Percent inhibition of the compounds as compared to dimethyl sulfoxide treated control samples was calculated. Compound concentration versus percent inhibition were fitted to generate IC50 values. […]

[2] = target: T2, PIP4K2 B (Homo sapiens, UniProt P78356); experiment: Kinase Assay-PIP4K2 B (Transcreener FI); type: biochemical
T2 construct: made in house; host or cells: E. coli
T2 sequence (P78356 1-416): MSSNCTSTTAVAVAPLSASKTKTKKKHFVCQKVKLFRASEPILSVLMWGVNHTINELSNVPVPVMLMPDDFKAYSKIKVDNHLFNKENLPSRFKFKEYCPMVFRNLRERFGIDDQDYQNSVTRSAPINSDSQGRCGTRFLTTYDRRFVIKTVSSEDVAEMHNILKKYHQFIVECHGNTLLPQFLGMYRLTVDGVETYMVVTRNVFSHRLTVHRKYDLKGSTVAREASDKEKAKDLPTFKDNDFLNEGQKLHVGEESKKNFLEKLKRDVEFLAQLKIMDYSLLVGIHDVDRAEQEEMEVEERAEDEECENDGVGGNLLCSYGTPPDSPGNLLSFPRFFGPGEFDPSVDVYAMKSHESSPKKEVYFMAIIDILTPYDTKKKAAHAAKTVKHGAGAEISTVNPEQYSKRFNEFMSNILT
From the text: GST tagged PIP4KtypeIIA and B enzymes were overexpressed in E. Coli and purified to >80% homogeneity. Phosphatidyl inositol-5-phosphate (PI5P, Cat. #850152, Avanti Polar Lipids Inc.) was used as the lipid substrate and phosphatidyl ethanolamine (DOPE 18:1, Cat. #850725, Avanti Polar Lipids Inc.) was used as the carrier lipid for assays. Ultrapure ATP and GTP was purchased from Bellbrooke Labs. ADP Glo reagents were obtained from Promega. Transcreener FI reagent was obtained from Bellbrooke labs.
• 1. HEPES buffer mix: 200 mM HEPES pH 7.4, 50 mM MgCl2, 0.05% v/v triton X 100 • 2. HNE buffer: 20 mM HEPES, pH 7.4, 100 mM NaCl, 0.5 mM EGTA • 3. H:E buffer: 30 mM HEPES, pH 7.4, 1 mM EGTA
GST-tagged PIP4KtypeIIB (3.4 μl, 2.77 mg/mL) was diluted to 5 mL using HNE buffer to yield 5× enzyme stock (25 nM)
Lipid Preparation: In a 10 mL pyrex glass vial, […] were suspended in 2.5 mL of HEPES buffer mix and 2.5 mL of H:E buffer. The contents were mixed and sonicated for 3 min to yield a translucent lipid stock.
Compound Preparation: Compounds were stored as 5 mM stocks in neat DMSO as room temperature in glass vials. 5 mM stocks were diluted to 2 mM and then serially diluted (3×) in neat DMSO in 96 well polypropylene plates. From the serially diluted stocks, 3 μL was delivered into 250 μL of 25% DMSO (in water) to generate 5× compound stocks. Typically, the highest compound conc. was 24 μM.
The assay volume was kept at 25 μL. To each well of the reaction plate, 10 μL of lipid stock (1:1 ratio PI5P:DOPE) was delivered. This was followed by the addition of 5 μL of compound in 25% DMSO. Then, to each well, 5 μL of 25 nM (5×) typeIIB enzyme was delivered. The contents were mixed well and incubated for 1 h at 27° C. After 1 h, reaction was initiated by adding 5 μL of 500 μM GTP and the contents were mixed well with a multi-channel pipetteman. The final concentration of the reagents are as follows: 50 mM HEPES, pH 7.3, 10 mM MgCl2, 20 mM NaCl, 0.01% v/v triton-X100, 5% DMSO, 100 μM GTP, 80 μM (2 μg) PI5P, 2 μg DOPE, and 5 nM PIP4KIIB Typically, the highest conc. of compounds was 4.8 μM and the lowest conc. was 0.
After 2 h, the reaction was quenched by adding 25 μL of transcreener FI reagent. The contents were incubated at rt for 1 h and the Fluorescence (Ex: 584 Em: 623) was read using Molecular Devices Paradigm plate reader. […] The blanks were averaged and subtracted from all other wells. Using a calibration curve, RFU was converted to μM GDP (product). IC50 was calculated by plotting the residual activity (expressed as % No inhibitor control) vs. log [Inh. conc.].

[3] = test system: MOLM-16; experiment: MOLM-16 EC50 assay; type: cell-based; details: MOLM16

Compound	pIC50 [1]	pIC50 [2]	pEC50 [3]
C=C(C)c1cc(Nc2cnc3c(c2)N2C(=O)CC[C@H]2CO3)ncc1-c1ccc(-c2nncn2C)cc1 [Compound 8, (6S)-12-({5-[4-(4-methyl-4H-1,2,4-triazol-3-yl)phenyl]-4-(prop-1-en-2-yl)pyridin-2-yl}amino)-8-oxa-2,10-diazatricyclo[7.4.0.0^2,6]trideca-1(13),9,11-trien-3-one]	8.00 to 9.00	8.00 to 9.00	< 6.00
CC1(C#N)CN(c2nc(Nc3cnc4c(c3)N3C(=O)CC[C@H]3CO4)ncc2-c2ccc(N3CCCC3=O)cc2)C1 [Compound 10, 3-methyl-1-(2-{[(6S)-3-oxo-8-oxa-2,10-diazatricyclo[7.4.0.0^2,6]trideca-1(13),9,11-trien-12-yl]amino}-5-[4-(2-oxopyrrolidin-1-yl)phenyl]pyrimidin-4-yl)azetidine-3-carbonitrile]	8.00 to 9.00	8.00 to 9.00	6.00 to 7.00
CN(c1nc(Nc2cnc3c(c2)OCCO3)ncc1-c1ccc(N2CCCC2=O)cc1)[C@H]1C[C@H](O)C1 [Compound 12, 1-{4-[2-({2H,3H-[1,4]dioxino[2,3-b]pyridin-7-yl}amino)-4-{methyl[(1r,3r)-3-hydroxycyclobutyl]amino}pyrimidin-5-yl]phenyl}pyrrolidin-2-one]	8.00 to 9.00	8.00 to 9.00	6.00 to 7.00
Cc1cnnn1-c1ccc(-c2cnc(Nc3cnc4c(c3)N(C(=O)OCCN(C)C)CCO4)nc2)cc1 [Compound 13, 2-(dimethylamino)ethyl 7-({5-[4-(5-methyl-1H-1,2,3-triazol-1-yl)phenyl]pyrimidin-2-yl}amino)-1H,2H,3H-pyrido[2,3-b][1,4]oxazine-1-carboxylate]	8.00 to 9.00	8.00 to 9.00	6.00 to 7.00
O=C1CCCN1c1ccc(-c2cnc(Nc3cnc4c(c3)N3C(=O)CC[C@H]3CO4)nc2C(F)(F)F)cc1 [Compound 14, (6S)-12-({5-[4-(2-oxopyrrolidin-1-yl)phenyl]-4-(trifluoromethyl)pyrimidin-2-yl}amino)-8-oxa-2,10-diazatricyclo[7.4.0.0^2,6]trideca-1(9),10,12-trien-3-one]	8.00 to 9.00	8.00 to 9.00	< 6.00
COc1nc(Nc2cnc3c(c2)N(C(=O)OCCN(C)C)CCO3)ncc1-c1ccc(C(=O)N(C)C)cc1 [Compound 15, 2-(dimethylamino)ethyl 7-({5-[4-(dimethylcarbamoyl)phenyl]-4-methoxypyrimidin-2-yl}amino)-1H,2H,3H-pyrido[2,3-b][1,4]oxazine-1-carboxylate]	8.00 to 9.00	8.00 to 9.00	6.00 to 7.00
COc1nc(Nc2cncc(N3CCC(N(C)C)CC3)c2)ncc1-c1ccc(N2CCCC2=O)cc1 [Compound 16, 1-{4-[2-({5-[4-(dimethylamino)piperidin-1-yl]pyridin-3-yl}amino)-4-methoxypyrimidin-5-yl]phenyl}pyrrolidin-2-one]	7.00 to 8.00	7.00 to 8.00	7.00 to 8.00
CN(C)C(=O)c1ccc(-c2cnc(Nc3cnc4c(c3)OCCO4)nc2N(C)[C@H]2C[C@@H](O)C2)cc1 [Compound 18, 4-[2-({2H,3H-[1,4]dioxino[2,3-b]pyridin-7-yl}amino)-4-{methyl[(1s,3s)-3-hydroxycyclobutyl]amino}pyrimidin-5-yl]-N,N-dimethylbenzamide]	7.00 to 8.00	6.00 to 7.00	< 6.00
COc1nc(Nc2cnc3c(c2)N(C(=O)CN(C)C)CCO3)ncc1-c1ccc(N2CCCC2=O)cc1 [Compound 19, 1-{4-[2-({1-[2-(dimethylamino)acetyl]-1H,2H,3H-pyrido[2,3-b][1,4]oxazin-7-yl}amino)-4-methoxypyrimidin-5-yl]phenyl}pyrrolidin-2-one]	7.00 to 8.00	7.00 to 8.00	7.00 to 8.00
Cc1cnnn1-c1ccc(-c2cnc(Nc3cnc4c(c3)N(C(=O)CN(C)C)CCO4)nc2)cc1 [Compound 20, 2-(dimethylamino)-1-[7-({5-[4-(5-methyl-1H-1,2,3-triazol-1-yl)phenyl]pyrimidin-2-yl}amino)-1H,2H,3H-pyrido[2,3-b][1,4]oxazin-1-yl]ethan-1-one]	7.00 to 8.00	7.00 to 8.00	6.00 to 7.00
O=C1CCCN1c1ccc(-c2cnc(Nc3cnc4c(c3)N3C(=O)CC[C@H]3CO4)nc2CC2(O)COC2)cc1F [Compound 21, (6S)-12-({5-[3-fluoro-4-(2-oxopyrrolidin-1-yl)phenyl]-4-[(3-hydroxyoxetan-3-yl)methyl]pyrimidin-2-yl}amino)-8-oxa-2,10-diazatricyclo[7.4.0.0^2,6]trideca-1(9),10,12-trien-3-one]	7.00 to 8.00	7.00 to 8.00	< 6.00
CCN(CC)CCN1CCOc2ncc(Nc3ncc(-c4ccc(N5CCCC5=O)cc4)c(OC)n3)cc21 [Compound 26, 1-{4-[2-({1-[2-(diethylamino)ethyl]-1H,2H,3H-pyrido[2,3-b][1,4]oxazin-7-yl}amino)-4-methoxypyrimidin-5-yl]phenyl}pyrrolidin-2-one]	6.00 to 7.00	6.00 to 7.00	6.00 to 7.00
COc1nc(Nc2cncc(N3CC[C@@H](N(C)C)C3)c2)ncc1-c1ccc(-c2nnccc2C)cc1 [Compound 34, N-{5-[(3R)-3-(dimethylamino)pyrrolidin-1-yl]pyridin-3-yl}-4-methoxy-5-[4-(4-methylpyridazin-3-yl)phenyl]pyrimidin-2-amine]	7.00 to 8.00	7.00 to 8.00	7.00 to 8.00
COc1nc(Nc2cncc(N3CC[C@@H](N(C)C)C3)c2)ncc1-c1ccc(N2CCCC2=O)cc1 [Compound 35, 1-{4-[2-({5-[(3R)-3-(dimethylamino)pyrrolidin-1-yl]pyridin-3-yl}amino)-4-methoxypyrimidin-5-yl]phenyl}pyrrolidin-2-one]	6.00 to 7.00	6.00 to 7.00	7.00 to 8.00
